The test system of data set [1] is stomach mucosa of Wistar rats. Put plainly: Ulcer test (ulcer-inducing effect in rats). It is filed as in vivo, Wistar rat. The following applies: rat. As to the method: J. Toxicol. […] A bleeding stomach ulcer is induced by oral administration of the active principle. After 3.5 hours, the animals are killed, their stomachs removed, cut open along the major curvature and stretched across a Styropor plate. The frequency and extent of average ulcer formation in the test and control groups is determined.

Data set [2] in a line: Toxicity, mice, oral (lethality). The note with it: mouse, in vivo.
The subject of the next data set is Wistar rats. Put plainly: Adjuvant arthritis (C. M. PEARSON), Freund's adjuvant. It is filed as in vivo, Wistar rat. The note with it: rat. As to the method: 3. Adjuvant arthritis (C. M. PEARSON, proc.Soc.exp.Biol. 91, 95-101 (1956)
10 Wistar rats weighing from 120 g to 150 g are used per dose. The same number of animals is used for control purposes. An arthritis is induced by the administration of 0.5 ml of Freund's adjuvant by subplantar injection. The test lasts 17 days. At the beginning of the test, the paw volume of all four extremities is determined and used as the starting value. […] For evaluation purposes, the difference between the starting volume and final volume of the paws both of the test group and of the control group is calculated and inhibition expressed as a percentage.

The subject of data set [3] is rats. Put plainly: Granuloma test (Cotton pellet test) according to R. MEIER. The format is in vivo. The following applies: rat. From the text: Granuloma test (Cotton pellet test) according to R. MEIER et al. Experientia 6, 469 (1950)
In this test, cottonwool pellets impregnated with croton oil were implanted subcutaneously in the test animals (rats) to induce the formation of granulomas in the connective tissue. After the animals had been killed, the granulomas were excised and weighed moist or dry. The anti-proliferative effect of an antiphlogistic is reflected in light weights of the granulomas by comparison with untreated controls.

Data set [4] deals with rats. Put plainly: Rat paw oedema test (HILLEBRECHT), carragenin. The format is in vivo. The following applies: 3 hours, relative to control group. As to the method: Determination of antiphlogistic activity by HILLEBRECHT's rat paw oedema test (J. HILLEBRECHT, Arzeim. Forsch. 1954, Vol. 4, page 607). An oedema was produced in one of the rear paws of rats weighing from 120 g to 150 g by the subplantar injection of carragenin (0.5% in a 0.9% NaCl-solution) in a quantity of 0.1 ml of solution per paw. After administration of the test substance, which generally should not exceed a volume of 10 ml per kg of body weight, the volume of the paw is determined in an overflow. After 3 hours, the final value is determined. For each dose, the test is carried out with 10 test animals and 10 control animals of one sex and repeated with the same number of animals of the other sex. For the purposes of evaluation, inhibition of the oedema is expressed as a percentage on relation to the control group.

[5] abbreviates: 1 mg/kg p.o. (1.0 for Indometacin), 7th day p.i.
[6] abbreviates: 1 mg/kg p.o. (1.0 for Indometacin), 14th day p.i.
Setting [7] is: 1 mg/kg p.o. (1.0 for Indometacin), 17th day p.i.
Setting [8] is: 1.0 mg/kg p.o. (printed 1 for Indometacin).

From US4397858A, “Treatment of rheumatism and arteriosclerosis with n-halogenophenyl-benzisothiazoles” (A. Nattermann & Cie GmbH, priority 1980, dated 1983) come the findings set out here.

As a reminder, the mortality is the percentage killed. A higher mortality goes with a strong lethal effect.

As to `O=c1c2ccccc2sn1-c1ccc(Cl)cc1` [2-(4-chlorophenyl)-1,2-benzisothiazol-3(2H)-one], the Ulcer-inducing effect is recorded as 0 in data set [1] (1 mg/kg p.o., 3.5 hours); 0 in data set [1] (10 mg/kg p.o., 3.5 hours); 0 in data set [1] (100 mg/kg p.o., 3.5 hours). Further, the mortality in data set [2] (3 160 mg/kg p.o.) was 0%. Also, the “Inhibition (adjuvant arthritis, paw volume)” value in the data set with Wistar rats (setting [5]) is reported as -27%; in the data set on Wistar rats (setting [6]) it was -44%; in the data set on Wistar rats (setting [7]), -45%; with Wistar rats (3.2 mg/kg p.o., 7th day p.i.), -46%; with Wistar rats (3.2 mg/kg p.o., 14th day p.i.) it was -51%; in the data set on Wistar rats (3.2 mg/kg p.o., 17th day p.i.), -56%. Moreover, the “Reduction in weight of the granulomas” value was -26% with rats [3] (0.1 mg/kg p.o.), -43% with rats [3] (setting [8]) and -44% in the data set with rats [3] (10 mg/kg p.o.). The Oedema inhibition in the data set with rats [4] (0.01 mg/kg p.o.) is reported as -13%; in the data set with rats [4] (0.1 mg/kg p.o.), -22%; with rats [4] (1.0 mg/kg p.o.), -36%.
For the compound `COc1ccc2c(c1)c(CC(=O)O)c(C)n2C(=O)c1ccc(Cl)cc1` [Indometacin, 1-(p-chlorobenzoyl)-5-methoxy-2-methyl-3-indole acetic acid, reference compound], the Ulcer-inducing effect result in data set [1] (in vivo, po, 3.2 mg/kg) is “++”; in data set [1] (in vivo, po, 5.6 mg/kg), “+++”; in data set [1] (in vivo, po, 7.5 mg/kg) it was “+++”. In addition, in data set [2] (38 mg/kg p.o.), the mortality came out at 50%. Moreover, the “Inhibition (adjuvant arthritis, paw volume)” value in the data set on Wistar rats (0.32 mg/kg p.o., 7th day p.i.) was -20%; in the data set on Wistar rats (0.32 mg/kg p.o., 14th day p.i.), -26%; in the data set with Wistar rats (0.32 mg/kg p.o., 17th day p.i.), -33%; with Wistar rats (setting [5]), -50%; in the data set with Wistar rats (setting [6]), -40%; in the data set with Wistar rats (setting [7]) it was -40%. The “Reduction in weight of the granulomas” value in the data set on rats [3] (setting [8]) is listed as -21%; in the data set on rats [3] (3.2 mg/kg p.o.), -7%; in the data set with rats [3] (5.6 mg/kg p.o.) it was -6%. Besides, the Oedema inhibition was -26% in the data set with rats [4] (3.8 mg/kg p.o.) and -45% in the data set on rats [4] (5.6 mg/kg p.o.).
